Results reported in PMC10045483, “Comparative Pharmacokinetic Study of 5 Active Ingredients after Oral Administration of Zuogui Pill in Osteoporotic Rats with Different Syndrome Types” (International Journal of Analytical Chemistry, 2023).
Read-outs that look alike come from different tables or passages of the source.

Experiments:
[1] = Stability of analytes in rat plasma (QC samples) under storage conditions; conditions: n = 5; for Stability, Room temperature for 4 h, Mean: 25°C; for Stability, Three freeze-thaw cycles, Mean: −20°C to 25°C
Protocol: QC samples at three levels using five replicates were used to evaluate the stability under the following conditions: 4 h at room temperature (25°C), 24 h in autosampler (4°C), and three freeze-thaw cycles (−20°C to 25°C).

[2] = Pharmacokinetic study of 5 compounds in rat plasma after oral administration of Zuogui Pill extract (HPLC-MS/MS, noncompartmental analysis); format: in vivo, Female Sprague-Dawley rats; conditions: oral Zuogui Pill extract 1.5 mL/100 g; for Cmax / Tmax / half-life / CL/F / MRT last / MRT inf: female, Sprague-Dawley, rat, po, 1.5 mL/100 g; for Cmax / Tmax / half-life / AUC0–t / AUC0–∞: n = 6; for CL/F: n = 6, read-out: CL_F_obs (converted); for MRT last: n = 6, read-out: MRT0–t; for MRT inf: n = 6, read-out: MRT0–∞
Protocol: Female Sprague-Dawley rats (180–220 g) were purchased from Shanghai Laboratory Animal Centre (Shanghai, China). The rats were maintained in a standard environment (22 ± 1°C, 60 ± 10% relative humidity, and a 12 h light/dark cycle) for one week to acclimate and fed water and food ad libitum. Twenty-four rats were divided randomly into […] and treated through ovary enucleation to establish the model of osteoporosis. Ten weeks after operation, osteoporosis models of kidney-yang-deficiency and kidney-yin-deficiency were established by intramuscular injection of hydrocortisone (25 mg/kg) and intragastric administration of thyroxine suspension (160 mg/kg) for 10 days, respectively. The femur of two rats from each group was then stained with hematoxylin and eosin (H&E) to assess histopathological change. Also, the validation of osteoporosis kidney-yang-deficiency and kidney-yin-deficiency models was judged by detecting the level of cyclic adenosine monophosphate (cAMP) and cyclic guanosine monophosphate (cGMP) in rat plasma. Laboratory Animal Management and Ethics Committee of Zhejiang Chinese Medical University approved all animal treatments (ZSLL-2014-48).
One hundred microliters of plasma was mixed with 100 μL of the IS solution, followed by 700 μL of methanol:acetonitrile (1 : 1). After 2 min of vortex mixing, the mixture was spun for 15 min at 8000 rpm and 4°C. The supernatants were collected and dried in a high-purity N2 environment. The residues were redissolved in 100 μL methanol and centrifuged for 15 min at 13000 rpm and 4°C. Finally, an aliquot of 10 μL supernatants was used to conduct the analysis.
Four groups of rats were orally administered with Zuogui Pill extract at a dose of 1.5 mL/100 g. Then, 0.3 mL blood samples were collected from orbital veins at 0, 0.08, 0.17, 0.25, 0.5, 1, 2, 4, 6, 8, 12, and 24 h after administration, placed in an anticoagulant tube, and centrifuged for 15 min at 5000 rpm and 4°C. The plasma was prepared and stored at −20°C until analysis.
Phoenix WinNonlin 6.4 software was used to estimate pharmacokinetic parameters using noncompartmental analysis. Furthermore, SPSS 26 software was used to compute comparisons of the pharmacokinetic data among the four groups according to a one-way ANOVA. The results are presented as mean ± SD.

[3] = high QC (800, 16000, 3200, 400, 40 ng/mL in the same order)
[4] = low QC (2, 40, 8, 1, 0.1 ng/mL for chlorogenic acid, loganin, morroniside, aucubin, protocatechuic aldehyde)
[5] = middle QC (40, 800, 160, 20, 2 ng/mL in the same order)
[6] = osteoporosis rats (ovariectomized)
[7] = osteoporotic rats with kidney-yang-deficiency
[8] = osteoporotic rats with kidney-yin-deficiency

O=Cc1ccc(O)c(O)c1 [Protocatechuic aldehyde, protocatechuic aldehyde]
Stability, Room temperature for 4 h, Mean [1, 3]: 87.4% | Stability, Room temperature for 4 h, Mean [1, 4]: 86.8% | Stability, Room temperature for 4 h, Mean [1, 5]: 90.9% | Stability, Autosampler at 4°C for 24 h, Mean [1, 3]: 85.9% | Stability, Autosampler at 4°C for 24 h, Mean [1, 4]: 88.4% | Stability, Autosampler at 4°C for 24 h, Mean [1, 5]: 89.3% | Stability, Three freeze-thaw cycles, Mean [1, 3]: 89.5% | Stability, Three freeze-thaw cycles, Mean [1, 4]: 90.8% | Stability, Three freeze-thaw cycles, Mean [1, 5]: 83.4% | Cmax ([2]; normal rats): 18.9 ± 3.62 ng/mL | Tmax ([2]; normal rats): 0.45 ± 0.1 h | half-life ([2]; normal rats): 10.9 ± 4.48 h | CL/F ([2]; normal rats): 12.5 mL/min/kg | MRT last ([2]; normal rats): 5.14 ± 0.17 h | MRT inf ([2]; normal rats): 15.8 ± 6.12 h | Cmax [2, 6]: 10.1 ± 1.99 ng/mL | Tmax [2, 6]: 0.3 h | half-life [2, 6]: 12 ± 4.69 h | CL/F [2, 6]: 21.3 mL/min/kg | MRT last [2, 6]: 5.52 ± 0.21 h | MRT inf [2, 6]: 17.8 ± 6.26 h | Cmax [2, 7]: 11.4 ± 1.31 ng/mL | half-life [2, 7]: 2.09 ± 0.89 h | CL/F [2, 7]: 50.5 mL/min/kg | MRT last [2, 7]: 2.55 ± 0.18 h | MRT inf [2, 7]: 3.5 ± 1.38 h | Cmax [2, 8]: 8.81 ± 1.61 ng/mL | Tmax [2, 8]: 0.17 ± 0.07 h | half-life [2, 8]: 2.2 ± 0.83 h | CL/F [2, 8]: 48.9 mL/min/kg | MRT last [2, 8]: 3.24 ± 0.37 h | MRT inf [2, 8]: 3.79 ± 0.79 h | AUC0–t ([2]; normal rats): 64.15 ± 10.30^∗∗ h∗ng/mL | AUC0–∞ ([2]; normal rats): 119.88 ± 32.93^∗∗ h∗ng/mL | AUC0–t [2, 6]: 34.92 ± 2.37 h∗ng/mL | AUC0–∞ [2, 6]: 72.28 ± 21.64 h∗ng/mL | AUC0–t [2, 7]: 24.70 ± 1.69^∗∗ h∗ng/mL | AUC0–∞ [2, 7]: 28.68 ± 6.49^∗∗ h∗ng/mL | AUC0–t [2, 8]: 27.48 ± 3.10^∗∗ h∗ng/mL | AUC0–∞ [2, 8]: 28.87 ± 2.69^∗∗ h∗ng/mL
